The source of these data is ChEMBL document CHEMBL2040724, “New synthesis and promising neuroprotective role in experimental ischemic stroke of ONO-1714” (Eur J Med Chem, 2012).

Calls of active or inactive are those of the source. The calls are words filed in the database; no cut-off is given here.

The term IC50 denotes the concentration needed to halve the response being measured. Broadly, the Ki is the dissociation constant of the complex between target and ligand, obtained from inhibition or displacement.

The nature of data set [1]: Cytotoxicity against CD-1 mouse peritoneal macrophages assessed as survival rate at 0.1 uM after 48 hrs by SRB assay. Format: cell-based, Peritoneal macrophage cell. The settings on record: read-out: Activity. (In general: The SRB assay estimates cell density from bound dye.)
Data set [2] can be described thus: Cytotoxicity against CD-1 mouse peritoneal macrophages assessed as survival rate at 1 uM after 48 hrs by SRB assay. Format: cell-based, Peritoneal macrophage cell. The settings on record: read-out: Activity.
Data set [3] can be described thus: Cytotoxicity against CD-1 mouse peritoneal macrophages assessed as survival rate at 10 uM after 48 hrs by SRB assay. The class given is cell-based, Peritoneal macrophage cell. The settings on record: read-out: Activity.
Data set [4] is described as follows: Cytotoxicity against CD-1 mouse peritoneal macrophages assessed as survival rate at 100 uM after 48 hrs by SRB assay. The class given is cell-based, Peritoneal macrophage cell. The settings on record: read-out: Activity.
For data set [5], the target named is T1, Nitric oxide synthase, inducible (Mus musculus, UniProt P29477).
T1 sequence (P29477 whole entry): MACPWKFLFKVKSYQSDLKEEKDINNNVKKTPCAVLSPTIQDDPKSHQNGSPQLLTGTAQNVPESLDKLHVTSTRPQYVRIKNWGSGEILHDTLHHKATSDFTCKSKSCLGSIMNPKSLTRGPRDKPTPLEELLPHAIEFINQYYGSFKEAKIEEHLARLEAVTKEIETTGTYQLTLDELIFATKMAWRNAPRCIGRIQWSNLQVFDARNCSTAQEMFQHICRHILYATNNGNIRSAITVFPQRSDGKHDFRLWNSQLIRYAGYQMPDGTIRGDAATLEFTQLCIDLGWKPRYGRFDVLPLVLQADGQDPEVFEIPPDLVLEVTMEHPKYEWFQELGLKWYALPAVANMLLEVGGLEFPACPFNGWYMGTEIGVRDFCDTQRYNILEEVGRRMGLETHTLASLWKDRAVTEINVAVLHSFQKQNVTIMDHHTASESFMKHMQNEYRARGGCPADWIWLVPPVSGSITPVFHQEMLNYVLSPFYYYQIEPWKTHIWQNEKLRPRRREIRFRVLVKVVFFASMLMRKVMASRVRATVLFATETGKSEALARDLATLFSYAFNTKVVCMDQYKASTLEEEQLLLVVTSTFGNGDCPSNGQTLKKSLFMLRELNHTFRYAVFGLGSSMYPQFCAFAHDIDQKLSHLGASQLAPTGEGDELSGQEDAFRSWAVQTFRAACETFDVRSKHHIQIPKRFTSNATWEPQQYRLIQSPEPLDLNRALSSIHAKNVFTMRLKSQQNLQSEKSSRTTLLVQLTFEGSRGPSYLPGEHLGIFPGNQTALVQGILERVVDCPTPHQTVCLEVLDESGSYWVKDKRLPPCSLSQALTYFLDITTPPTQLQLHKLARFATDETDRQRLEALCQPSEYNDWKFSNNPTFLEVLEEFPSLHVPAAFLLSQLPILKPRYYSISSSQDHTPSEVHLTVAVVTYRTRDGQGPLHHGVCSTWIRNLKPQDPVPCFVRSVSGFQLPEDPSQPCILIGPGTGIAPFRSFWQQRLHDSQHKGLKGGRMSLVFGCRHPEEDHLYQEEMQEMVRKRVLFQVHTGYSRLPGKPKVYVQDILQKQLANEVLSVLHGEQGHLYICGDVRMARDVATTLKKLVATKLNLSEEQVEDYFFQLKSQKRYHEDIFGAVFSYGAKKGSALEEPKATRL
As to the kind of experiment: Inhibition of mouse recombinant iNOS activity assessed as conversion of [14C]-L-arginine to [14C]-L-citrulline by liquid scintillation counting.

Data set [6] has as its target Nitric oxide synthase, inducible (Rattus norvegicus, UniProt Q06518). Briefly: Inhibition of rat iNOS.
In data set [7] the target is Nitric oxide synthase, inducible (Homo sapiens, UniProt P35228). As to the kind of experiment: Inhibition of human iNOS.
For data set [8], the system named is Peritoneal macrophage cell. As to the kind of experiment: Inhibition of LPS/INFgamma-induced nitric oxide production in CD-1 mouse peritoneal macrophages after 48 hrs by Griess reaction. The settings on record: CD-1, Peritoneal macrophage cell. Background: The Griess reaction detects nitrite, a stable product of nitric oxide.
A further data set deals with Mus musculus. Briefly: Neuroprotective activity in permanent middle cerebral artery occlusion model of CD-1 mouse brain assessed as reduction of infarct volume administered subcutaneously by using Alzet mini-osmotic pumps for 21 days before and 48 hrs after pMCAO by TTC staining. Format: functional, organism-based.

Sequence of Nitric oxide synthase, inducible (Rattus norvegicus, UniProt Q06518) (Q06518 whole entry): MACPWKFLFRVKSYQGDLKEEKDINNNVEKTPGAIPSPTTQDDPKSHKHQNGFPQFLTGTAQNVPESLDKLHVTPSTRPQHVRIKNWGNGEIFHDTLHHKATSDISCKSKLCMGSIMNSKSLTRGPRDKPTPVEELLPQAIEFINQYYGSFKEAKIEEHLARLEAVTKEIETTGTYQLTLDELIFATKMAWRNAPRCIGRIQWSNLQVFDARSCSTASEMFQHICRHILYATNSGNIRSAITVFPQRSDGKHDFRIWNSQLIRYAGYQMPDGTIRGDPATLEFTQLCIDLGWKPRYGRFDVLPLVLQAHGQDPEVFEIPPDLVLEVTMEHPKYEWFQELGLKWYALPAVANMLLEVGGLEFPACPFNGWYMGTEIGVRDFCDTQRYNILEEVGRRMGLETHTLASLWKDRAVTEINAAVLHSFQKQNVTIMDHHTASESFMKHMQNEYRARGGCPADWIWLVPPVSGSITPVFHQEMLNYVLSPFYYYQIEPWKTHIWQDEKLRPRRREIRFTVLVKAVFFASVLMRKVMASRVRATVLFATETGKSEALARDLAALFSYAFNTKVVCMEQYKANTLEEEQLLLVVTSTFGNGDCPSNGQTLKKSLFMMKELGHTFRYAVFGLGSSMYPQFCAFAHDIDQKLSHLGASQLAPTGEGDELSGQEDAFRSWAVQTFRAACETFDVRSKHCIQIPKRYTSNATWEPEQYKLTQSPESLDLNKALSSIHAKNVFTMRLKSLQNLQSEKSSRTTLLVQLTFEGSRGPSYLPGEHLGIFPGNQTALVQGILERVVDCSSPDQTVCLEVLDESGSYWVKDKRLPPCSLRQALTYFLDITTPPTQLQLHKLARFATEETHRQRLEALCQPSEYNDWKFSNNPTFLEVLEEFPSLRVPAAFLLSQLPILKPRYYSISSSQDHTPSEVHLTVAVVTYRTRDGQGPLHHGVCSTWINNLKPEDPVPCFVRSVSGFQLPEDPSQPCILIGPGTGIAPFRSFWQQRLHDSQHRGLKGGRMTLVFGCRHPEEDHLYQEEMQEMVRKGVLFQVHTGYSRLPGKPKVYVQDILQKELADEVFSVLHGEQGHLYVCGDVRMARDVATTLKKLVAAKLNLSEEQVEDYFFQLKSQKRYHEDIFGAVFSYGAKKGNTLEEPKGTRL
Sequence of Nitric oxide synthase, inducible (Homo sapiens, UniProt P35228) (P35228 whole entry): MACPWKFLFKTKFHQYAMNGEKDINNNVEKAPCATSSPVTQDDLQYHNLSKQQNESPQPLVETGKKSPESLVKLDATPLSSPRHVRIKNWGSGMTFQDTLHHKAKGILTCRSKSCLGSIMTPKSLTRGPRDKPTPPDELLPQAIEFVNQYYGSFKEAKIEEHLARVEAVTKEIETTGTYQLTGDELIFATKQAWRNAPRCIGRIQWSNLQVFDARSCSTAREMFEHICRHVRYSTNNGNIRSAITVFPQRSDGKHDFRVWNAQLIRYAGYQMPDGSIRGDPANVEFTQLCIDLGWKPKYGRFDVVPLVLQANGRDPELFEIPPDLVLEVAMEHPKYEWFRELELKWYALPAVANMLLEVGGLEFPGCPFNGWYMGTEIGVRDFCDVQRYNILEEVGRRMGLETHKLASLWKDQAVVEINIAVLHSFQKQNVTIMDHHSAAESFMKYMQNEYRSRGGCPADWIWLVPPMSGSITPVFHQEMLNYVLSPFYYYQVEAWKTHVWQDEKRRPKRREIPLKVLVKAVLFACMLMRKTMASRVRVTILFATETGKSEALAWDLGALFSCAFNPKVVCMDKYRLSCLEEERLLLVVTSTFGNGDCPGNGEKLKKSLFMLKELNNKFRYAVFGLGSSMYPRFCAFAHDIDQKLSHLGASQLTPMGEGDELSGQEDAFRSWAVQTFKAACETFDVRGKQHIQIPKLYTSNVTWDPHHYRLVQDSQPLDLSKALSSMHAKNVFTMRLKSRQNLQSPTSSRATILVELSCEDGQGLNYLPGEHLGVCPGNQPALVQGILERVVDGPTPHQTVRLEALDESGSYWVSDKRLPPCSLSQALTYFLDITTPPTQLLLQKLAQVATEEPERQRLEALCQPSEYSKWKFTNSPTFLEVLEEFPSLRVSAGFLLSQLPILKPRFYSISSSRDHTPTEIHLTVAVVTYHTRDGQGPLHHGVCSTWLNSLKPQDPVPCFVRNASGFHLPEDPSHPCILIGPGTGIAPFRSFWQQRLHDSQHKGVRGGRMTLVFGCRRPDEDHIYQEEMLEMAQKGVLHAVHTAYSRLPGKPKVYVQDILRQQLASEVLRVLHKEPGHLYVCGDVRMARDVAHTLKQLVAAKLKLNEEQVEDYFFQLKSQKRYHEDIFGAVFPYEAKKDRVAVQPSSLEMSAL

`C[C@H]1CC(=N)N[C@@H]2[C@H](Cl)[C@@H]21`: in [1], the viability at 48 h, 0.1 µM came to 98.4%. In data set [2], the viability at 48 h, 1 µM is 93.6%. For the same compound, in data set [3], the viability at 48 h, 10 µM is 99.1%. Also, in data set [4], the viability at 48 h, 100 µM was found to be 97.2%. Besides, the IC50 in data set [5] was found to be 11 nM. The Ki in data set [6] and in [7] was 1.8 nM in each case.

For the compound `C[C@H]1CC(N)=N[C@@H]2[C@H](Cl)[C@@H]21`, the midpoint of inhibition in data set [8], the IC50, lay at 820 nM. For the same compound, the outcome in the data set with Mus musculus was Active.
